Test results: patent US12612412B2, “Antiviral heterocyclic compounds” (Enanta Pharmaceuticals, Inc., priority 2021, dated 2026)
pEC50: −log10 of the molar value.

Key:
[1] = tested on: recombinant HMPV CAN97-83 containing eGFP (MPV-GFP1); assay: HMPV antiviral assay Method-A (MPV-GFP1 eGFP fluorescence in Vero E6 cells); type: cell-based, Human metapneumovirus (HMPV); settings: human metapneumovirus, Vero C1008, 120 h, read-out: HMPV EC50
Description: HMPV antiviral activity was evaluated using a recombinant version of HMPV CAN97-83 engineered to contain the coding sequence for enhanced green fluorescence protein (eGFP) in the 3′ end of the virus genome (MPV-GFP1, ViraTree). Vero E6 cells ([…]) were seeded at a density of 12,000 cells/100 μL/well into 96-well cell plates one day prior to the assay. On the day of screening, the cell culture medium was aspirated from the wells and cells were washed twice with serum-free Eagle's Modified Essential Medium (EMEM, ATCC #) containing 1% penicillin-streptomycin (Invitrogen) (SF-EMEM). Cell washes were performed by dispensing 100 μL SF-EMEM per well and immediately aspirating the wash medium from the well. Following the second wash step, serum-free OptiMEM (Invitrogen, Cat No.) (SF-OptiMEM) containing 0.5 μg/mL TPCK-Trypsin (VENDOR) and 1% penicillin-streptomycin was added to the cells at 50 μL/well. Compounds were added into the 96-well plates using a JANUS automated liquid handling system (VENDOR). Compounds were initially diluted 1:50 into an intermediate 96-well plate containing SF-OptiMEM prior to transfer to the assay plate (25 μL/well). Each of the test compounds were tested in duplicate wells at final concentrations starting from 8 μM or 2 μM using ½ stepwise dilutions for a total of 8 points. Virus infection was performed by preparing a working stock of MPV-GFP1 at a multiplicity of infection (MOI) equal to 0.05/25 μL and aliquoting 25 μL of virus inoculum to the compound and positive control wells. SF-OptiMEM was added (25 μL/well) to the appropriate wells to serve as a virus-free negative control for the assay. The final DMSO concentration of all wells is 0.5%. Plates were incubated at 32° C., 5% CO2 for 5 days.
After 5 days incubation, eGFP fluorescence intensity was measured at (X) […] wavelength using a Spectramax i3× plate reader (VENDOR). Percent viral inhibition was calculated using the following equation: y=[…]
Where XQ is the fluorescence intensity measured in a well containing recombinant MPV-GFP1-infected, compound-treated cells and XP is the average fluorescence intensity measured in the wells containing untreated cells infected with recombinant virus. EC50 values were then calculated by non-linear regression using a four parameter curve logistic equation. The curve fit model employed was XLFit Dose Response One Site Model 200: y=(A+(B/(1+((x/C)^D))))
Where A is the minimum y value, B is the maximum y value, C is the log EC50 value, and D is the slope factor. […] EC50 ranges are as follows: A<0.5 μM; B>0.5 μM.

[2] = tested on: genotype A, "Long" strain RSV; assay: RSV-A assay (CPE protection in Hep-2 cells, ATPlite readout); type: cell-based, Human respiratory syncytial virus (HRSV); settings: human respiratory syncytial virus, genotype A “Long” strain RSV, MOI 0.1, CPE protection, read-out: Human RSV-A (“Long”)
In short: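 In this cytopathic-effect protection format, infected Hep-2 cultures (MOI 0.1) are exposed to compound for 5 days. Surviving cell ATP is quantified with ATPlite, and EC50 is determined.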

Row | SMILES | pEC50 [1] | pEC50 [2]
1 | CCc1nc2c(OC)cc(C(=O)NC[C@](O)(c3cc4c(c(-c5ccc(F)c(Cl)c5)n3)OC[C@]4(C)C(N)=O)C(F)(F)F)cc2s1 [Example 20] | > 6.30 | > 6.70
2 | CC[C@]1(C(N)=O)COc2c1cc([C@@](O)(CNC(=O)c1cc(OC3CC3)c3ncccc3c1)C(F)(F)F)nc2-c1ccc(F)cc1 [Example 235] | > 6.30 | > 6.70
3 | COc1cc(C(=O)NC[C@](O)(c2cc3c(c(-c4ccc(F)c(Cl)c4)n2)OC[C@]3(C)C(N)=O)C(F)(F)F)cc2cc(C3CC3)nnc12 [Example 86] | > 6.30 | > 6.70
4 | COc1cc(C(=O)NC[C@](O)(c2cc3c(c(-c4ccc(F)cc4)n2)OC[C@]3(C)C(N)=O)C(F)(F)F)cc2cn(C3CCC3)nc12 [Example 323] | < 6.30 | > 6.70
5 | COc1cc(C(=O)NC[C@](O)(c2cc3c(c(-c4ccc(F)cc4)n2)OC[C@]3(C)C(N)=O)C(F)(F)F)cc2cc(C(F)(F)F)c(C)nc12 [Example 83] | > 6.30 | > 6.70
6 | C[C@]1(C(N)=O)COc2c1cc([C@@](O)(CNC(=O)c1ccc3[nH]c(=O)sc3c1)C(F)(F)F)nc2-c1ccc(F)cc1 [Example 129] | < 6.30 | > 6.70
7 | COC(=O)Nc1cc(C(=O)NC[C@](O)(c2cc3c(c(-c4ccc(F)cc4)n2)OC[C@]3(C)C(N)=O)C(F)(F)F)cc2cc(C)cnc12 [Example 210] | > 6.30 | > 6.70
8 | COc1cc(C(=O)NC[C@](O)(c2cc3c(c(-c4ccc(Cl)cc4)n2)OC[C@]3(C)C(N)=O)C(F)(F)F)cc2cc(C(F)(F)F)cnc12 [Example 314] | > 6.30 | > 6.70
9 | COc1cc(C(=O)NC[C@](O)(c2cc3c(c(-c4ccc(F)cc4)n2)OC[C@]3(C)C(N)=O)C(F)(F)F)ccc1OC[C@H](O)C(F)(F)F [Example 132] | < 6.30 | > 6.70
10 | NC(=O)[C@@]1(C2CC2)COc2c1cc([C@@](O)(CNC(=O)c1cc(F)c3nc(N)sc3c1)C(F)(F)F)nc2-c1ccc(F)cc1 [Example 263] | > 6.30 | > 6.70
11 | C[C@]1(C(N)=O)COc2c1cc([C@@](O)(CNC(=O)c1ccc3nc(CO)sc3c1)C(F)(F)F)nc2-c1ccc(F)cc1 [Example 161] | < 6.30 | > 6.70
12 | C[C@]1(C(N)=O)COc2c1cc([C@@](O)(CNC(=O)c1cc(F)c3nc(CF)cn3c1)C(F)(F)F)nc2-c1ccc(F)cc1 [Example 63] | < 6.30 | > 6.70
13 | COc1cc(C(=O)NC[C@](O)(c2cc3c(c(-c4ccc(F)cc4)n2)OC[C@]3(C)C(N)=O)C(F)(F)F)ccc1OC[C@H](O)C(F)F [Example 136] | < 6.30 | > 6.70
14 | C[C@]1(C(N)=O)COc2c1cc([C@@](O)(CNC(=O)c1cc(F)c3nc(N)sc3c1)C(F)(F)F)nc2-c1ccc(Cl)cc1 [Example 307] | > 6.30 | > 6.70
15 | C[C@]1(C(N)=O)COc2c1cc([C@@](O)(CNC(=O)c1ccc3nc(NC(=O)CN)sc3c1)C(F)(F)F)nc2-c1ccc(F)cc1 [Example 152] | < 6.30 | > 6.70
16 | COc1cc(C(=O)NC[C@](O)(c2cc3c(c(-c4ccc(F)cc4)n2)OC[C@]3(C)C(N)=O)C(F)(F)F)cc2cc(C3CC3)nnc12 [Example 81] | < 6.30 | > 6.70
17 | C[C@]1(C(N)=O)COc2c1cc([C@@](O)(CNC(=O)c1ccc3nc(C(F)F)sc3c1)C(F)(F)F)nc2-c1ccc(F)cc1 [Example 141] | < 6.30 | > 6.70
18 | C[C@]1(C(N)=O)COc2c1cc([C@@](O)(CNC(=O)c1cc(OC3CC3)n3nc(C4CC4)cc3c1)C(F)(F)F)nc2-c1ccc(F)cc1 [Example 321] | > 6.30 | > 6.70
19 | C[C@]1(C(N)=O)COc2c1cc([C@@](O)(CNC(=O)c1ccc3nc(C(F)(F)F)cn3c1)C(F)(F)F)nc2-c1ccc(F)cc1 [Example 54] | < 6.30 | > 6.70
20 | COc1cc(C(=O)NC[C@](O)(c2cc3c(c(-c4ccc(F)cc4)n2)OC[C@]3(C)C(N)=O)C(F)(F)F)cc2cn(C(F)F)nc12 [Example 40] | > 6.30 | > 6.70

Row | SMILES | pEC50 [1] | pEC50 [2]
21 | Cc1cnc2c(NC(=O)N3CCCC3)cc(C(=O)NC[C@](O)(c3cc4c(c(-c5ccc(F)cc5)n3)OC[C@]4(C)C(N)=O)C(F)(F)F)cc2c1 [Example 226] | < 6.30 | > 6.70
22 | Cc1cnc2c(Nc3ccc(C4CC4)nn3)cc(C(=O)NC[C@](O)(c3cc4c(c(-c5ccc(F)cc5)n3)OC[C@]4(C)C(N)=O)C(F)(F)F)cc2c1 [Example 114] | > 6.30 | > 6.70
23 | C[C@]1(C(N)=O)COc2c1cc([C@@](O)(CNC(=O)c1cc(F)c3nc(N)sc3c1)C(F)(F)F)nc2-c1ccc(F)c(Cl)c1 [Example 12] | > 6.30 | > 6.70
24 | COc1cc(C(=O)NC[C@](O)(c2cc3c(c(-c4ccc(F)cc4)n2)OC[C@]3(C)C(N)=O)C(F)(F)F)cc2sc(C3CC3)nc12 [Example 17] | > 6.30 | > 6.70
25 | C[C@]1(C(N)=O)COc2c1cc([C@@](O)(CNC(=O)c1ccc3nn(C(F)F)cc3c1)C(F)(F)F)nc2-c1ccc(F)cc1 [Example 41] | > 6.30 | > 6.70
26 | C[C@]1(C(N)=O)COc2c1cc([C@@](O)(CNC(=O)c1cc(NC(N)=O)c3ncc(Cl)cc3c1)C(F)(F)F)nc2-c1ccc(F)cc1 [Example 224] | < 6.30 | > 6.70
27 | C[C@]1(C(N)=O)COc2c1cc([C@@](O)(CNC(=O)c1cc(F)c3nn(C4CC4)cc3c1)C(F)(F)F)nc2-c1ccc(F)cc1 [Example 25] | > 6.30 | > 6.70
28 | Cc1n[nH]c2ccc(C(=O)NC[C@](O)(c3cc4c(c(-c5ccc(F)cc5)n3)OC[C@]4(C)C(N)=O)C(F)(F)F)cc12 [Example 100] | < 6.30 | > 6.70
29 | C[C@]1(C(N)=O)COc2c1cc([C@@](O)(CNC(=O)c1cc(F)c3nc(N)sc3c1)C(F)(F)F)nc2-c1ccc(Cl)c(F)c1 [Example 305] | > 6.30 | > 6.70
30 | C[C@]1(C(N)=O)COc2c1cc([C@@](O)(CNC(=O)c1cc(Cl)c3[nH]ncc3c1)C(F)(F)F)nc2-c1ccc(F)cc1 [Example 103] | > 6.30 | > 6.70
31 | COc1cc(C(=O)NC[C@](O)(c2cc3c(c(-c4ccc(F)cc4)n2)OC[C@@]3(C(N)=O)C2CC2)C(F)(F)F)cc2cccnc12 [Example 268] | < 6.30 | > 6.70
32 | C[C@H](N)C(=O)Nc1nc2ccc(C(=O)NC[C@](O)(c3cc4c(c(-c5ccc(F)cc5)n3)OC[C@]4(C)C(N)=O)C(F)(F)F)cc2s1 [Example 153] | < 6.30 | > 6.70
33 | CC(C)[C@@H](N)C(=O)Nc1nc2ccc(C(=O)NC[C@](O)(c3cc4c(c(-c5ccc(F)cc5)n3)OC[C@]4(C)C(N)=O)C(F)(F)F)cc2s1 [Example 156] | < 6.30 | > 6.70
34 | C[C@]1(C(N)=O)COc2c1cc([C@@](O)(CNC(=O)c1ccc3nc(C4CC4)cn3c1)C(F)(F)F)nc2-c1ccc(F)cc1 [Example 51] | > 6.30 | > 6.70
35 | [2H]C([2H])([2H])NC(=O)Nc1cc(C(=O)NC[C@](O)(c2cc3c(c(-c4ccc(F)cc4)n2)OC[C@]3(C)C(N)=O)C(F)(F)F)cc2cc(C)cnc12 [Example 329] | > 6.30 | > 6.70
36 | Cc1cnc2c(Nc3ccc(O)nn3)cc(C(=O)NC[C@](O)(c3cc4c(c(-c5ccc(F)cc5)n3)OC[C@]4(C)C(N)=O)C(F)(F)F)cc2c1 [Example 120] | < 6.30 | > 6.70
37 | COc1cc(C(=O)NC[C@](O)(c2cc3c(c(-c4ccc(F)cc4)n2)OC[C@@]3(C(N)=O)C2CC2)C(F)(F)F)cc2cn(C(F)F)nc12 [Example 267] | > 6.30 | > 6.70
38 | C[C@]1(C(N)=O)COc2c1cc([C@@](O)(CNC(=O)c1cc(F)c3nc(N)sc3c1)C(F)(F)F)nc2-c1ccc(F)c(F)c1 [Example 308] | > 6.30 | > 6.70
39 | C[C@]1(C(N)=O)COc2c1cc([C@@](O)(CNC(=O)c1cc(NC(=O)N3CCC3)c3ncc(Cl)cc3c1)C(F)(F)F)nc2-c1ccc(F)cc1 [Example 222] | < 6.30 | > 6.70
